# Test results: ChEMBL document CHEMBL1649542, “Outer membrane protein STM3031 (Ail/OmpX-like protein) plays a key role in the ceftriaxone resistance of Salmonella enterica serovar Typhimurium” (2009)
# What was measured:
# Format in all cases: functional, Salmonella enterica subsp. enterica serovar Typhimurium
# Salmonella typhimurium [1] = experiment: Antibacterial activity against Salmonella enterica serovar Typhimurium R200 expressing Outer membrane protein STM3031 by CLSI M7-A7 agar dilution method
# Salmonella typhimurium [2] = experiment: Antibacterial activity against Salmonella enterica serovar Typhimurium R200 expressing stm3031 gene deletion mutant by CLSI M7-A7 agar dilution method
# Salmonella typhimurium [3] = experiment: Antibacterial activity against Salmonella enterica serovar Typhimurium 01-4 by CLSI M7-A7 agar dilution method
# Salmonella typhimurium [4] = experiment: Antibacterial activity against Salmonella enterica serovar Typhimurium 01-4 by Etest method
# Salmonella typhimurium [5] = experiment: Antibacterial activity against Salmonella enterica serovar Typhimurium R5 expressing Outer membrane protein STM3031 after serial passage by Etest method
# Salmonella typhimurium [6] = experiment: Antibacterial activity against Salmonella enterica serovar Typhimurium R25 expressing Outer membrane protein STM3031 after serial passage by Etest method
# Salmonella typhimurium [7] = experiment: Antibacterial activity against Salmonella enterica serovar Typhimurium R10 expressing Outer membrane protein STM3031 after serial passage by Etest method
# Salmonella typhimurium [8] = experiment: Antibacterial activity against Salmonella enterica serovar Typhimurium R1 expressing Outer membrane protein STM3031 after serial passage by Etest method
# Salmonella typhimurium [9] = experiment: Antibacterial activity against Salmonella enterica serovar Typhimurium R70 expressing Outer membrane protein STM3031 after serial passage by Etest method
# [10] = Salmonella enterica subsp. enterica serovar Typhimurium
Compound,MIC (Salmonella typhimurium [1]) [µg/mL],MIC (Salmonella typhimurium [2]) [µg/mL],MIC (Salmonella typhimurium [3]) [µg/mL],further results
Cn1nnnc1SCC1=C(C(=O)O)N2C(=O)[C@@H](NC(=O)[C@H](O)c3ccccc3)[C@H]2SC1 [CEFAMANDOLE],> 256,64,2,
CO/N=C(\C(=O)N[C@@H]1C(=O)N2C(C(=O)O)=C(CSc3nc(=O)c(O)nn3C)CS[C@H]12)c1csc(N)n1 [CEFTRIAXONE],> 256,4,0.047,MIC (Salmonella typhimurium [4]): 0.047 µg/mL; MIC (Salmonella typhimurium [5]): 6 µg/mL; MIC (Salmonella typhimurium [6]): 24 µg/mL; MIC (Salmonella typhimurium [7]): 12 µg/mL; MIC (Salmonella typhimurium [8]): 2 µg/mL; MIC (Salmonella typhimurium [9]): 64 µg/mL
CC(=O)OCC1=C(C(=O)O)N2C(=O)[C@@H](NC(=O)Cc3cccs3)[C@H]2SC1 [CEPHALOTHIN],> 256,128,4,
CC[C@H]1OC(=O)[C@H](C)[C@@H](O[C@H]2C[C@@](C)(OC)[C@@H](O)[C@H](C)O2)[C@H](C)[C@@H](O[C@@H]2O[C@H](C)C[C@H](N(C)C)[C@H]2O)[C@](C)(O)C[C@@H](C)C(=O)[C@H](C)[C@@H](O)[C@]1(C)O [ERYTHROMYCIN],4,2,128,
CCn1cc(C(=O)O)c(=O)c2ccc(C)nc21 [NALIDIXIC ACID],1,0.5,4,
CO[C@@H]1[C@@H](OC(N)=O)[C@@H](O)[C@H](Oc2ccc3c(O)c(NC(=O)c4ccc(O)c(CC=C(C)C)c4)c(=O)oc3c2C)OC1(C)C [NOVOBIOCIN],256,128,256,
CCN1CCN(C(=O)N[C@@H](C(=O)N[C@@H]2C(=O)N3[C@@H]2SC(C)(C)[C@@H]3C(=O)O)c2ccccc2)C(=O)C1=O [PIPERACILLIN],> 256,,256,
CO[C@H]1/C=C/O[C@@]2(C)Oc3c(C)c(O)c4c(O)c(c(/C=N/N5CCN(C)CC5)c(O)c4c3C2=O)NC(=O)/C(C)=C\C=C\[C@H](C)[C@H](O)[C@@H](C)[C@@H](O)[C@@H](C)[C@H](OC(C)=O)[C@@H]1C [RIFAMPIN],16,16,16,
CN[C@@H]1[C@H](O)[C@H](NC)[C@H]2O[C@@]3(O)C(=O)C[C@@H](C)O[C@H]3O[C@@H]2[C@H]1O [SPECTINOMYCIN],> 256,,> 256,
CN[C@@H]1[C@H](O[C@H]2[C@H](O[C@H]3[C@H](O)[C@@H](O)[C@H](N=C(N)N)[C@@H](O)[C@@H]3N=C(N)N)O[C@@H](C)[C@]2(O)C=O)O[C@@H](CO)[C@H](O)[C@H]1O [STREPTOMYCIN],256,128,128,
CN(C)[C@@H]1C(O)=C(C(N)=O)C(=O)[C@@]2(O)C(O)=C3C(=O)c4c(O)cccc4[C@@](C)(O)[C@H]3C[C@@H]12 [TETRACYCLINE],16,4,8,
GENTAMICIN,,,,MIC (Salmonella typhimurium [1]; [10]): 1 µg/mL; MIC (Salmonella typhimurium [2]; [10]): 1 µg/mL; MIC (Salmonella typhimurium [3]; [10]): 1 µg/mL
